Results reported in patent US5612188A, “Automated, multicompartmental cell culture system” (Cornell Research Foundation, Inc., priority 1994, dated 1997).
Like-named read-outs stand apart in the source and are kept apart here.

Tests used:
[1] = 45 mg/kg, 72 hours; cited from earlier work
[2] = test system: sheep liver glutathione-S-arene oxide transferase; assay: Km's for conjugation of GSH and naphthalene oxide, partially purified transferase; format: in vitro ADME; conditions: one-half of value for racemic naphthalene oxide, pH 7.4, read-out: Km for 1R, 2S-- or 1S, 2R-- NO (conjugation with GSH)
Text: (§1) The rate of reaction of naphthalene oxide with GSH is assumed to be of the form V=Vmax*{1GSH/(GSH+Kml)}*{NO/(NO+Km2)}. […] Work with partially purified sheep liver glutathione-S-arene oxide transferase has provided Km's for conjugation of GSH and racemic naphthalene oxide at pH 7.4 (Hayakawa, T., LeMahieu, R. A., and Udenfriend, S., "Studies on Glutathione-S-arene Oxide Transferase--a Sensitive Assay", Arch. Biochem. Biophys. 162: 223-230 (1974), which is hereby incorporated by reference). Individual glutathione-S-transferase isozymes are enantioselective with respect to naphthalene oxide (O'Brien, K. A. F., Suverkropp, C., Kanekal, S., Plopper, C. G., and Buckpitt, A. R., "Tolerance to Multiple Doses of the Pulmonary Toxicant, Naphthalene", Toxicol. Appl. Pharmacol. 99: 487-500 (1989), which is hereby incorporated by reference), but GSH conjugation proceeds equally fast with 1R, 2S- and 1S, 2R-naphthalene oxide (Buonarati, M., Jones, A. D., and Buckpitt, A., "In vivo Metabolism of Isomeric Naphthalene Oxide Glutathione Conjugates", Drug Metab. Dispos. 18: 183-189 (1990), which is hereby incorporated by reference). Therefore Vmax's for conjugation with each enantiomer are assumed equal, and the Km for reaction with each enantiomer is assumed to be one-half of the value reported for racemic naphthalene oxide.

[3] = test system: H4IIE cells; assay: Viability of H4IIE hepatoma cells after 24 hr BrdU exposure and 30 sec UV light in the multicompartmental cell culture system (trypan blue); format: cell-based, rat
Protocol: A rat hepatoma cell line, H4IIE obtained from the American Type Culture Collection (Bethesda, Md.), was cultured in RPMI Medium 1640 with 5 percent fetal calf serum, L-glutamine and antibiotics (penicillin G, streptomycin and amphotericin B) (Gibco Island, N.Y.). Cells were seeded 24 hr before the experiment. Attachment of H4IIE cells occurs several hours following seeding. Density was approximately 20 percent of confluence at the start of the experiment.
The multicompartmental cell culture system ("MCCS") of the present invention was used to expose both normal and transformed cells to an antineoplastic compound simultaneously. The volume of distribution of the system was 500 mL. Each compartment (T-flask, Becton Dickinson, Lincoln Park, N.J.) contained 75 mL of cell culture medium (RPMI 1640 as previously described). The flow rate was set at 5 mL per min. and maintained by means of a peristaltic pump (Millipore, Bedford, Mass.). The entire system was placed inside a Forma Scientific water-jacketed incubator (Fisher Scientific, Philadelphia, Pa.) set at 37° C. with 5 percent CO2. […]
(§2) Following the 24 hr. exposure period, both human lymphocytes and rat hepatoma cells were exposed to a UV light source for 30 sec. Viable cells were determined and enumerated by trypan blue dye exclusion on a hemacytometer immediately following UV exposure.

[4] = test system: human lymphocytes; assay: Viability of human lymphocytes after 24 hr BrdU exposure and 30 sec UV light in the multicompartmental cell culture system (trypan blue); format: cell-based; conditions: 750 mg BrdU in 500 mL system
Protocol: Approximately 14 mL of freshly drawn human blood were collected into EDTA tubes (Becton Dickinson, Lincoln Park, N.J.). To this blood sample was added 4 mL of Hanks balanced salt solution. Two and one-half mL of the blood solution was layered onto 3 mL of ficoll (Pharmacia, Piscataway, N.J.) and centrifuged at 1500 rpm for 20 min at ambient temperature. The pellet was washed in an equal volume of Hanks balanced salt solution and recentrifuged. All lymphocytes collected from the 14 mL blood sample were seeded into 100 mL of RPMI 1640 (Gibco, Grand Island, N.Y.) and placed in a Forma Scientific water-jacketed incubator (Fisher Scientific, Philadelphia, Pa.) set at 37° C. with 5 percent CO2 overnight.
The multicompartmental cell culture system ("MCCS") of the present invention was used to expose both normal and transformed cells to an antineoplastic compound simultaneously. The volume of distribution of the system was 500 mL. Each compartment (T-flask, Becton Dickinson, Lincoln Park, N.J.) contained 75 mL of cell culture medium (RPMI 1640 as previously described). […]
as §2

[5] = test system: sheep liver glutathione-S-arene oxide transferase; conditions: read-out: Km for GSH, pH 7.4, cited from earlier work
[6] = test system: liver microsomes; assay: Conjugation of naphthalene oxide with GSH, rat liver; format: in vitro ADME; design: unit not given here; conditions: assumed equal for each enantiomer
Text: (§3) Determination of Vmax's and Km's for naphthalene oxide production and Vmax's for GSH conjugates and dihydrodiol production in rat microsomes were done in the same way as for the mouse. Sources of data were Buckpitt, et al, 1987, supra, Hesse, S. and Mezger, M., "Involvement of Phenolic Metabolites in the Irreversible Protein-binding of Aromatic Hydrocarbons: Reactive Metabolites of [^14 C]-naphthalene and [^14 C] 1-naphthol Formed by Rat Liver Microsomas", Mol. Pharmacol. 16: 667-675 (1979) which is hereby incorporated by reference, O'Brien et al., 1985, supra, van Bladeren et al., 1985, supra, and Yost, G. S., Buckpitt, A. R., Roth, R. A., and McLemore, T. L., "Mechanisms of Lung Injury by Systematically Administered Chemicals", Toxicol. Appl. Pharmacol. 101: 179-195 (1989), which is hereby incorporated by reference.

[7] = test system: protein; assay: Covalent binding of naphthalene oxide to protein in hepatocytes; format: in vitro ADME; conditions: non-enzymatic; from hepatocyte incubations
Protocol: The first order rate constant for non-enzymatic rearrangement of naphthalene oxide to 1-naphthol has been reported (van Bladeran et al., 1985, supra). The rate of covalent binding was determined from data reported for incubations of hepatocytes with naphthalene oxide (Buonarati et al., 1989, supra).

[8] = non-enzymatic; cited from earlier work
[9] = test system: liver microsomes and cytosolic protein; assay: Conjugation of naphthalene oxide with GSH, mouse liver; format: in vitro ADME; conditions: assumed equal for each enantiomer
Text: as §1

[10] = test system: lung microsomes; assay: Conjugation of naphthalene oxide with GSH, rat lung; format: in vitro ADME; design: unit not given here; conditions: assumed equal for each enantiomer
Text: as §3

[11] = test system: lung microsomes and cytosolic protein; assay: Conjugation of naphthalene oxide with GSH, mouse lung; format: in vitro ADME; conditions: assumed equal for each enantiomer
Text: as §1

[12] = test system: lung microsomes; conditions: 48 hours after xylene; cited from earlier work
[13] = test system: liver GSH; conditions: 48 hours after xylene; cited from earlier work
[14] = test system: liver microsomes; conditions: 48 hours after xylene; cited from earlier work

Oc1cccc2ccccc12 [1 naphthol, 1-Naphthol]
percent of dose recovered [1]: Eighty-one

C1=C[C@@H]2O[C@@H]2c2ccccc21 [1R, 2S NO, 1R, 2S-naphthalene oxide]
Km ([2]; Mouse): 50 µM
Km ([2]; Rat): 50 µM

C1=C[C@H]2O[C@H]2c2ccccc21 [1S, 2R NO, 1S, 2R-naphthalene oxide]
Km ([2]; Mouse): 50 µM
Km ([2]; Rat): 50 µM

O=c1[nH]c(=O)n([C@H]2C[C@H](O)[C@@H](CO)O2)cc1Br [BrdU, 5-bromo-2'-deoxyuridine]
viable H4IIE cells following UV exposure ([3]; 750 mg BrdU in 500 mL system, 30 sec UV): fifty-three
uptake of BrdU by hepatoma cells versus lymphocytes ([3]; MCCS, inferred from killing): greater uptake of the BrdU by the hepatoma cells than the lymphocytes
viable human lymphocytes following UV exposure [4]: Eighty-nine

N[C@@H](CCC(=O)N[C@@H](CS)C(=O)NCC(=O)O)C(=O)O [GSH, glutathione]
Km ([5]; Mouse): 3300 µM
Km ([5]; Rat): 3300 µM

C1=CC2OC2c2ccccc21 (stereo not shown) [NO, naphthalene oxide]
Vmax, conjugation with GSH [6]: 500
Binding to protein [7]: 0.2 pmole/mg/min/μM NO
First order rate constant for rearrangement to 1-napthol [8]: 0.25 min⁻¹
Vmax, conjugation with GSH [9]: 150 nmol/mg/min
Vmax, conjugation with GSH [10]: 400
Vmax, conjugation with GSH [11]: 22.5 nmol/mg/min

xylene
metabolism of naphthalene by lung microsomes, percent of the normal rate [12]: 56%
GSH levels [13]: return to normal
metabolism of naphthalene by liver microsomes [14]: return to normal
